The target of one assay is JAK 2 (Homo sapiens, UniProt O60674). The experiment in a line: Biochemical potency on JAK2, TR-FRET LANCE Ultra kinase assay (examples 1-99). As to conditions: ATP at Km (0.7 μM), read-out: JAK2 inhibitory activity (pIC50 class) (converted). The method, then:
(§1) The objective of this study was to assess the capability of compounds to inhibit all 4 JAK isoforms activity in a cell-free environment. Assay for JAK 1, JAK 2, JAK 3 and TYK2 were performed by Time-resolved fluorescence resonance energy transfer (TR-FRET) technology. It consists in the interaction of two labelled binding partners detected by the energy transfer from an excited donor to an acceptor dye and measurement of light emission by the acceptor dye. LANCE Ultra kinase assay was used. In presence of JAK 1, JAK 2, JAK 3 and TYK2 kinases and ATP (corresponding to Km), the ULight peptide substrate (LANCE Ulight-JAK-1 (Tyr1023) Peptide, Perkin Elmer, TRF0121) is phosphorylated. It is then captured by Eu-anti-phospho-substrate antibody (LANCE Eu-W1024 Anti-phosphotyrosine (PT66), Perkin Elmer, AD0069), which bring the Eu-chelate donor and ULight acceptor dyes into close proximity. Upon excitation at 320 nm, the Eu-chelate transfers its energy to the ULight dye, resulting in a fluorescent light emission at 665 nm.
(§2) Serial dilutions of compounds in pure DMSO are prepared from 10 mM DMSO stock solutions. Compounds were tested in 384-well plate for 11 consecutive 5-fold dilutions starting from 20 μM highest concentration (20 μM-[…]). 200 nL of compound were transferred from mother plate to test plate by using Mosquito (TTP labtech). Assay was performed in 384-well Perkin Elmer test plate in 20 μL assay volume (kinase reaction) and 40 μL total volume (stopping reagent and antibody detection reagents). In 10 μL of substrate solution (peptide+ATP) 30/50/20/10 nM of peptide and 20/0.7/0.2/12 μM of ATP were added for JAK 1, JAK 2, JAK 3 and TYK2 respectively. 10 μL of enzyme solution was added to kinase reaction at these concentrations: 0.15/0.083/0.025/0.144 ng/μL of JAK 1, JAK 2, JAK 3 and TYK2 respectively. After shaking and 1.5 h of incubation at r.t., 20 μL of Stop (10 μL EDTA) and Detection mixture (10 μL Europium-anti-phospho antibody, final: 0.5 nM) were added. Reading was performed after 1 h of incubation on a EnVision 2104 reader (Perkin Elmer).
(§3) Calculation of IC50 data, curves and QC analysis was performed by using Excel tool and GraphPadPrism software, v9. Briefly, individual concentration-effect curves are generated by plotting the logarithm of the tested concentration of tested compounds (X) vs. corresponding percent inhibition values (Y) using least squares (ordinary) fit. Best fit IC50 values are calculated using Log(inhibitor) vs. normalized response—Variable slope equation, where Y=100/(1+10^((Log IC50−X)*HillSlope)). QC criteria parameters (Z′, S:B, R2, HillSlope) were checked for every IC50 curve. Calculation of IC50 data, curves and QC analysis were made using Excel tools and GraphPadPrism software. QC criteria parameters: Z′≥0.5, Hill Slope range 0.5 to 5, S:B>2.
(In general: In TR-FRET formats the signal depends on donor and acceptor labels being close together.)

In a further assay the target is TYK2 (Homo sapiens, UniProt P29597). The assay is described as follows: Biochemical potency on Tyk2, TR-FRET LANCE Ultra kinase assay (examples 1-99). As to conditions: ATP at Km (12 μM), read-out: Tyk2 inhibitory activity (pIC50 class) (converted). The method, then:
as §1, §2, §3

For a further assay, the target named is T1, JAK 3 (Homo sapiens, UniProt P52333).
T1 sequence (P52333 1-1124): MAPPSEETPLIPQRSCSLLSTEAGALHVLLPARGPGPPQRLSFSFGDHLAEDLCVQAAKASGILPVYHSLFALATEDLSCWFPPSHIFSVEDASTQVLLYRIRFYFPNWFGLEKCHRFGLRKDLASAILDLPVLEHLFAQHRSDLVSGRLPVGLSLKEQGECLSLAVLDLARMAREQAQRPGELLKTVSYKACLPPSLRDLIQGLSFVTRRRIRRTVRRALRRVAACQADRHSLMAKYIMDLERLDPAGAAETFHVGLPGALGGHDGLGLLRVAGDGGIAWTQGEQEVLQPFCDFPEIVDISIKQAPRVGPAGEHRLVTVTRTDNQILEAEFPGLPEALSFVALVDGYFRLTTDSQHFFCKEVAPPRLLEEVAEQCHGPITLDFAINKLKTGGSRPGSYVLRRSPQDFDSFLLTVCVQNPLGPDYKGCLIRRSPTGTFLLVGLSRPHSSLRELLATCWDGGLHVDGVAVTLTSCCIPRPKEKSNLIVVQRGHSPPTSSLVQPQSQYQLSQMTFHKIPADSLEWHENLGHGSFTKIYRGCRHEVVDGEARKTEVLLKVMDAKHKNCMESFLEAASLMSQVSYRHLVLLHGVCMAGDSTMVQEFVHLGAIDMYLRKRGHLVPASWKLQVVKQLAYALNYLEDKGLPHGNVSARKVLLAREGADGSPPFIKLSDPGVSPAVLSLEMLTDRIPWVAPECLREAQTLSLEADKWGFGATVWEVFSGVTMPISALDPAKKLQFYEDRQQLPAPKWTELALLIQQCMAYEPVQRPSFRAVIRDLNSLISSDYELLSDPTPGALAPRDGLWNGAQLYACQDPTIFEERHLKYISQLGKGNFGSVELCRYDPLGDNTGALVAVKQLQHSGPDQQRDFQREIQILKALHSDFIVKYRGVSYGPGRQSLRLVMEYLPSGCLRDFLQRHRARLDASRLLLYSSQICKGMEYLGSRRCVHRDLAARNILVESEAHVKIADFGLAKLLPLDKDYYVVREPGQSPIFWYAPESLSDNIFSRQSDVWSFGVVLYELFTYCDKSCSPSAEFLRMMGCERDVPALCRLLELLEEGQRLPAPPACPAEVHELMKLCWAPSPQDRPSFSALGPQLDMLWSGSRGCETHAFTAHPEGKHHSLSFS
The experiment in a line: Biochemical potency on JAK3, TR-FRET LANCE Ultra kinase assay (examples 1-99). Conditions: ATP at Km (0.2 μM), read-out: JAK3 inhibitory activity (pIC50 class) (converted). The method, then: as §1, §2, §3

Another assay concerns the target JAK 1 (Homo sapiens, UniProt P23458). The assay is described as follows: Biochemical potency on JAK1, TR-FRET LANCE Ultra kinase assay (examples 1-99). Conditions: ATP at Km (20 μM), read-out: JAK1 inhibitory activity (pIC50 class) (converted). The protocol:
as §1, §2, §3

Where only a bound is given, the exact number is not on record here.

JAK 1, sequence (P23458 whole entry): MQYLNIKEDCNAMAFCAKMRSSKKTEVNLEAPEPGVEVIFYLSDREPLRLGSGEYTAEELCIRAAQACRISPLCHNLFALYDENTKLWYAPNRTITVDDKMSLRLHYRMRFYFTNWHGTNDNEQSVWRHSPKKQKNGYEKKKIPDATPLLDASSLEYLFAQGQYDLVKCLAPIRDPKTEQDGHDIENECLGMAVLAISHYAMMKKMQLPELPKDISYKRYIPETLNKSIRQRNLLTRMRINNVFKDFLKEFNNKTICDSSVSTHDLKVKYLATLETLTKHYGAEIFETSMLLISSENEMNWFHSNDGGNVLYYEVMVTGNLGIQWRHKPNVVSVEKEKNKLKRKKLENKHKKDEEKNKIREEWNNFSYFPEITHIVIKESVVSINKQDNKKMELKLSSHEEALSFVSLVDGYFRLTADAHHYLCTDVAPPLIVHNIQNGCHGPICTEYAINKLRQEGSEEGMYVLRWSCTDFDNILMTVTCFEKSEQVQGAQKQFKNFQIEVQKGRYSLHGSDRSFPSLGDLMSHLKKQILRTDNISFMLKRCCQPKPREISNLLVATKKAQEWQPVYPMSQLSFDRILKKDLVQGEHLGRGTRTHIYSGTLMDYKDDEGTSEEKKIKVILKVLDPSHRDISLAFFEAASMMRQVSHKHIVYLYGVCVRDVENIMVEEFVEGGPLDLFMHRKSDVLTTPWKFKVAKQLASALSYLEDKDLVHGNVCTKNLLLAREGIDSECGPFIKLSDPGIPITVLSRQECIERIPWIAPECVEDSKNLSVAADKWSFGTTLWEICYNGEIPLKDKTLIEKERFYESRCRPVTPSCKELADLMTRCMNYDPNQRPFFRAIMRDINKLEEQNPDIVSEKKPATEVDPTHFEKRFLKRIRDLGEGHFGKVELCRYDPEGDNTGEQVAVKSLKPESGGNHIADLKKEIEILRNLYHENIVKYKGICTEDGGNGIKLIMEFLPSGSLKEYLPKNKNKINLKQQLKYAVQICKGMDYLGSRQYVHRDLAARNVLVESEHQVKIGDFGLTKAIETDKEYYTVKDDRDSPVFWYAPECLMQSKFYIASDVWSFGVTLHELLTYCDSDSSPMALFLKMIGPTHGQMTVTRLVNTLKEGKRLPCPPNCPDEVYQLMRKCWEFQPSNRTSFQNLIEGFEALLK
TYK2, sequence (P29597 whole entry): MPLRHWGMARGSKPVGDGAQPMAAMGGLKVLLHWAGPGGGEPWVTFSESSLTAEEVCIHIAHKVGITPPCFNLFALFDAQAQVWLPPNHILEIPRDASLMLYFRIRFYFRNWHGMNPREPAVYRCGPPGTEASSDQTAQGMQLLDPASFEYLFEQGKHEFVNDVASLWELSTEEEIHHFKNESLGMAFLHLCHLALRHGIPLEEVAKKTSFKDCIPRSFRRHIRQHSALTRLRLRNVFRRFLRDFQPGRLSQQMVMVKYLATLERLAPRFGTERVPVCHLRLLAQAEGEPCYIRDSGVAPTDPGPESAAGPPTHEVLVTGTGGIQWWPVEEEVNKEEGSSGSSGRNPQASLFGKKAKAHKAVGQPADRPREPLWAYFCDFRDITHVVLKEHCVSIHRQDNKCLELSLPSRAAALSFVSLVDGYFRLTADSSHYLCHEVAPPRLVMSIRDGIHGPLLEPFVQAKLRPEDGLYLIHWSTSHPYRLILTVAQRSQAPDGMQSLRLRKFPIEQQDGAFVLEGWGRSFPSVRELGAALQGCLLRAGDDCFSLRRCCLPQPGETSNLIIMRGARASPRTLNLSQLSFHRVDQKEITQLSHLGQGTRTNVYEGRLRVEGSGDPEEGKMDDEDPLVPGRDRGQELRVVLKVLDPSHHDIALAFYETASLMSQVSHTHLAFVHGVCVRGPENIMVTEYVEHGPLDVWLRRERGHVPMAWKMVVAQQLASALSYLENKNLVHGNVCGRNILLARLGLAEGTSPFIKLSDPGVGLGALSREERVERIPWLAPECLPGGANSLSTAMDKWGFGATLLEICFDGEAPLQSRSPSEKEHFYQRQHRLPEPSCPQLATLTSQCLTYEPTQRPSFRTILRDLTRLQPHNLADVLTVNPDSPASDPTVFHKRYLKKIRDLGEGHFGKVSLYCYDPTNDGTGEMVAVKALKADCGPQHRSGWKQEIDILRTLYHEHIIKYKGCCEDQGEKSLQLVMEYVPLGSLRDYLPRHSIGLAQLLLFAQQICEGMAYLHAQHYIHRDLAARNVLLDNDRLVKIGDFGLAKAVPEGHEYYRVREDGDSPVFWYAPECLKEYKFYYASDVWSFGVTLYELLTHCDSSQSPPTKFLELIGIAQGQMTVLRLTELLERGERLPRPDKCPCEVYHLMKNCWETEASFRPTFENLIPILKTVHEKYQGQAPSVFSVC
JAK 2, sequence (O60674 whole entry, canonical isoform): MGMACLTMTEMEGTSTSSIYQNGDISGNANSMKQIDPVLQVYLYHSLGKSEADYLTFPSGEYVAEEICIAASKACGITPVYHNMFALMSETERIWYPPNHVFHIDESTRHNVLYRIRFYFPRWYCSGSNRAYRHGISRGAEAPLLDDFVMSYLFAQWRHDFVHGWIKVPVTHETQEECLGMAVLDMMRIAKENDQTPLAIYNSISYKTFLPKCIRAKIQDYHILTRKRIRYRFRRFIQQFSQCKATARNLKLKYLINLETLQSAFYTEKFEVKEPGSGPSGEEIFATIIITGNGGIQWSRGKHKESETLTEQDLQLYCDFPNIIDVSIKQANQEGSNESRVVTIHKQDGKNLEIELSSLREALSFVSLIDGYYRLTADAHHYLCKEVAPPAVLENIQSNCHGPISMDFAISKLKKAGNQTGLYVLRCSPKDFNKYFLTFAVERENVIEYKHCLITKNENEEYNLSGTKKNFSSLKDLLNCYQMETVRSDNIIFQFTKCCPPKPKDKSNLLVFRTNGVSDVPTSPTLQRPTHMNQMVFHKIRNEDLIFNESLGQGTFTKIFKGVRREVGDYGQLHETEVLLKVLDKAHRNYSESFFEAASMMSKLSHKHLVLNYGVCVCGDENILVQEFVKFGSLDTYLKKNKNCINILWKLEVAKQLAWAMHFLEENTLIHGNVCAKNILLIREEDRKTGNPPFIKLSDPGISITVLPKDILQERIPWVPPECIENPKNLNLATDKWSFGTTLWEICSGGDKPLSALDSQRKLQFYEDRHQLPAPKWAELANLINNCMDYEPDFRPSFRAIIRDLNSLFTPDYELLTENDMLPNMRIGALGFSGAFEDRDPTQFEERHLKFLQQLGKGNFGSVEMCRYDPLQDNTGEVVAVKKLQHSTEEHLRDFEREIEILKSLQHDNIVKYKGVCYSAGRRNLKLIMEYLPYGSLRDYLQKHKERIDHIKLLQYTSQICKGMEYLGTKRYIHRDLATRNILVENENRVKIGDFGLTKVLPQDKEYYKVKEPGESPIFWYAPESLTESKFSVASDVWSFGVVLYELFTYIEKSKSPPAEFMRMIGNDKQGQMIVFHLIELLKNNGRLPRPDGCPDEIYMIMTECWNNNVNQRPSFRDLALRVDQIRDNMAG

For the compound `N#CCc1nn(-c2cc(Cl)ccc2OC(F)F)c2cc(-c3cnn4cccnc34)ncc12` [Example 28, 2-(1-(5-chloro-2-(difluoromethoxy)phenyl)-6-(pyrazolo[1,5-a]pyrimidin-3-yl)-1H-pyrazolo[4,3-c]pyridin-3-yl)acetonitrile], the IC50 was no more than 5.01 nM on JAK 2, 5.01 to 50.1 nM at TYK2, no more than 5.01 nM on JAK 3 and no more than 5.01 nM at JAK 1.
Consider `OCc1nn(-c2cc(Cl)ccc2OC(F)F)c2cc(-c3cnn4cccnc34)ncc12` [Example 29, (1-(5-chloro-2-(difluoromethoxy)phenyl)-6-(pyrazolo[1,5-a]pyrimidin-3-yl)-1H-pyrazolo[4,3-c]pyridin-3-yl)methanol], for which the IC50 on JAK 2 was no more than 5.01 nM; at TYK2, 5.01 to 50.1 nM; on JAK 3 it was no more than 5.01 nM; at JAK 1, 5.01 to 50.1 nM.
Take `CN(C)Cc1nn(-c2cc(Cl)ccc2OC(F)F)c2cc(-c3cnn4cccnc34)ncc12` [Example 30, 1-(1-(5-chloro-2-(difluoromethoxy)phenyl)-6-(pyrazolo[1,5-a]pyrimidin-3-yl)-1H-pyrazolo[4,3-c]pyridin-3-yl)-N,N-dimethylmethanamine]: the IC50 on JAK 2 was 5.01 to 50.1 nM; at TYK2, greater than 50.1 nM; on JAK 3, 5.01 to 50.1 nM; at JAK 1 it was 5.01 to 50.1 nM.
As for `CNCc1nn(-c2cc(Cl)ccc2OC(F)F)c2cc(-c3cnn4cccnc34)ncc12` [Example 31, 1-(1-(5-chloro-2-(difluoromethoxy)phenyl)-6-(pyrazolo[1,5-a]pyrimidin-3-yl)-1H-pyrazolo[4,3-c]pyridin-3-yl)-N-methylmethanamine], the IC50 at JAK 2 was 5.01 to 50.1 nM; on TYK2, greater than 50.1 nM; at JAK 3, 5.01 to 50.1 nM; at JAK 1, 5.01 to 50.1 nM.
Regarding `NCc1nn(-c2cc(Cl)ccc2OC(F)F)c2cc(-c3cnn4cccnc34)ncc12` [Example 32, (1-(5-chloro-2-(difluoromethoxy)phenyl)-6-(pyrazolo[1,5-a]pyrimidin-3-yl)-1H-pyrazolo[4,3-c]pyridin-3-yl)methanamine], the IC50 was no more than 5.01 nM at JAK 2, 5.01 to 50.1 nM on TYK2, 5.01 to 50.1 nM on JAK 3 and 5.01 to 50.1 nM at JAK 1.
Regarding `CNC(=O)c1nn(-c2cc(Cl)ccc2OC(F)F)c2cc(-c3cnn4cccnc34)ncc12` [Example 33, 1-(5-chloro-2-(difluoromethoxy)phenyl)-N-methyl-6-(pyrazolo[1,5-a]pyrimidin-3-yl)-1H-pyrazolo[4,3-c]pyridine-3-carboxamide], the IC50 at JAK 2 was no more than 5.01 nM; at TYK2, 5.01 to 50.1 nM; on JAK 3, no more than 5.01 nM; on JAK 1, no more than 5.01 nM.
As for `COc1ccc(Cl)cc1-n1nc(C(=O)N[C@H]2C[C@@H](O)C2)c2cnc(-c3cnn4cccnc34)cc21` [Example 34, 1-(5-chloro-2-methoxyphenyl)-N-((1s,3s)-3-hydroxycyclobutyl)-6-(pyrazolo[1,5-a]pyrimidin-3-yl)-1H-pyrazolo[4,3-c]pyridine-3-carboxamide], the IC50 on JAK 2 is 5.01 to 50.1 nM; at TYK2, greater than 50.1 nM; on JAK 3, 5.01 to 50.1 nM; at JAK 1 it was 5.01 to 50.1 nM.
On to `O=C(c1nn(-c2cc(Cl)ccc2OC(F)F)c2cc(-c3cnn4cccnc34)ncc12)N1CCS(=O)(=O)CC1` [Example 35, (1-(5-chloro-2-(difluoromethoxy)phenyl)-6-(pyrazolo[1,5-a]pyrimidin-3-yl)-1H-pyrazolo[4,3-c]pyridin-3-yl)(1,1-dioxidothiomorpholino)methanone], for which the IC50 at JAK 2, on TYK2, at JAK 3 and on JAK 1 was 5.01 to 50.1 nM throughout.
With `CN(C)[C@H]1C[C@@H](NC(=O)c2nn(-c3cc(Cl)ccc3OC(F)F)c3cc(-c4cnn5cccnc45)ncc23)C1` [Example 36, 1-(5-chloro-2-(difluoromethoxy)phenyl)-N-((1s,3s)-3-(dimethylamino)cyclobutyl)-6-(pyrazolo[1,5-a]pyrimidin-3-yl)-1H-pyrazolo[4,3-c]pyridine-3-carboxamide], the IC50 at JAK 2 is 5.01 to 50.1 nM; at TYK2 it was greater than 50.1 nM; on JAK 3 it was 5.01 to 50.1 nM; on JAK 1, 5.01 to 50.1 nM.
